This test deals with Beta-galactosidase (Escherichia coli, UniProt Q8VNN2). The test is described as follows: beta-galactosidase enzyme inhibitors and activators, dose response, artefact control for CCR6 antagonist project, biochemical, E. coli enzyme, set 3 (AID 504712).

One may read the IC50 as the concentration that gives 50% inhibition. Read a high IC50 as weaker potency in that assay.

Beta-galactosidase, sequence (Q8VNN2 whole entry): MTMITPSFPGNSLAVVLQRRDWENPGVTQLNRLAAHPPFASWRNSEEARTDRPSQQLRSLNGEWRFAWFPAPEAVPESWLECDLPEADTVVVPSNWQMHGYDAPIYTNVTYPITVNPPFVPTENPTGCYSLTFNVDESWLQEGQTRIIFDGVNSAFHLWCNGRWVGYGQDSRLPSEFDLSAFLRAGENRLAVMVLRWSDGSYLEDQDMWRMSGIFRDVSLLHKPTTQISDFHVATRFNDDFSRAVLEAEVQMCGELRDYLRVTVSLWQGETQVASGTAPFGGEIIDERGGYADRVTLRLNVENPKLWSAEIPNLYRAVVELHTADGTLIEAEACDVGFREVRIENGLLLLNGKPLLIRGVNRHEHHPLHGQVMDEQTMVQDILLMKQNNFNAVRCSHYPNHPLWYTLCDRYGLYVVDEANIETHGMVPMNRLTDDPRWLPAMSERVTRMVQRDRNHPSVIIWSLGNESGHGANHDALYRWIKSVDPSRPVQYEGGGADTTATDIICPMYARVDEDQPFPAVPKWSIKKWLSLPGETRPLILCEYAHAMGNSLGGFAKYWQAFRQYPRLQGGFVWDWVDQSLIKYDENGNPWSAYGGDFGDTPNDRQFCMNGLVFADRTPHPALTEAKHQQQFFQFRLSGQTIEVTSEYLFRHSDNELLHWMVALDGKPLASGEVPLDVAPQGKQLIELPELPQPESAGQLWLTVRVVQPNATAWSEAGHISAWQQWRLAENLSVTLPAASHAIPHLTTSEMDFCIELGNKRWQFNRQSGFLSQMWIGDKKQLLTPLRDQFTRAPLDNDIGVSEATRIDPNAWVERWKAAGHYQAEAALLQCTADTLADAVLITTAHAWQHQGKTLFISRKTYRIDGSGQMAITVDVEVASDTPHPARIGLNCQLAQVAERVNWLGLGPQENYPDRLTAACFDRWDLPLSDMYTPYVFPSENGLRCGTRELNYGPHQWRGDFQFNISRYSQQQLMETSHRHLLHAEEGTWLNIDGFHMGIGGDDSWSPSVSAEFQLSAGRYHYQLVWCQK

Turning to `CC(NO)C(=O)C(=CN1CCCCC1)CN1CCCCC1` (stereo not drawn), the IC50 was more than 66.6 µM. With `CCOC1=CC(=Cc2c(-c3ccccc3)[nH]n(-c3nc(-c4ccc(Br)cc4)cs3)c2=O)C=CC1=O` the figure was more than 66.6 µM. The same measure for `C=c1c(O)c(O)cc2c1=CC=C1[C@@]2(C)CC[C@@]2(C)[C@@H]3C[C@](C)(C(=O)O)CC[C@]3(C)CC[C@]12C`: more than 66.6 µM; for `Cc1ccc2nc(-n3c(O)c[nH]c3=S)sc2c1`: more than 66.6 µM; for `Oc1cc(Sc2nnnn2-c2ccccc2)c(O)n1-c1cccc(Cl)c1`: more than 66.6 µM. The same measure for `O=C1C=CC([N+](=O)[O-])=CC1CN=Nc1nnn[nH]1` (stereo not drawn): more than 66.6 µM. Take `Cc1cc(C)nc(NNC=C2C(=O)CC(c3ccc(F)cc3)CC2=O)n1` (stereo not drawn): the IC50 was more than 66.6 µM. With `CCOc1ccc(CN=Nc2ccc(S(=O)(=O)Nc3ccccc3C(=O)O)cc2[N+](=O)[O-])cc1` the figure was more than 66.6 µM. With `Cc1ccccc1-n1c(O)cc(Sc2nnc(-c3ccccc3)o2)c1O` [1-(2-methylphenyl)-3-[(5-phenyl-1,3,4-oxadiazol-2-yl)sulfanyl]pyrrolidine-2,5-dione] the figure was more than 66.6 µM. Compound `Cc1cc(C)cc(-n2c(O)cc(Sc3nnnn3-c3ccccc3)c2O)c1` [1-(3,5-dimethylphenyl)-3-(1-phenyltetrazol-5-yl)sulfanylpyrrolidine-2,5-dione] yielded an IC50 of more than 66.6 µM. The same measure for `COc1ccc(-n2c(O)cc(Sc3nnc(-c4ccccc4)o3)c2O)cc1` [1-(4-methoxyphenyl)-3-[(5-phenyl-1,3,4-oxadiazol-2-yl)thio]pyrrolidine-2,5-dione]: more than 66.6 µM; for `O=C1Nc2ccc([N+](=O)[O-])cc2/C1=N/NC(=O)c1cc(-c2ccccc2Cl)nc2ccccc12` [2-(2-chlorophenyl)-N'-(2-keto-5-nitro-indol-3-yl)cinchoninohydrazide]: more than 66.6 µM; for `Cc1c(NN=C2C(=O)CC(C)(C)CC2=O)c(=O)n(-c2ccccc2)n1C` [2-[(1,5-dimethyl-3-oxidanylidene-2-phenyl-pyrazol-4-yl)hydrazinylidene]-5,5-dimethyl-cyclohexane-1,3-dione]: more than 66.6 µM. In the case of `C=CCOc1ccc(CN=Nc2ccc(S(=O)(=O)Nc3ccccc3C(=O)O)cc2[N+](=O)[O-])cc1OC` [2-[[4-[2-[(3-methoxy-4-prop-2-enoxy-phenyl)methylidene]hydrazinyl]-3-nitro-phenyl]sulfonylamino]benzoic acid], the IC50 is more than 66.6 µM. In the case of `COC1=CC=CC(CN=Nc2nc(Nc3ccc([N+](=O)[O-])cc3)nc(N3CCCC3)n2)C1=O` (stereo not drawn) [2-hydroxy-3-methoxybenzaldehyde {4-[(4-nitrophenyl)amino]-6-pyrrolidin-1-yl-1,3,5-triazin-2-yl}hydrazone], the IC50 is more than 66.6 µM. With `Oc1cc(Sc2nnnn2C2CCCCC2)c(O)n1-c1ccccc1` [3-[(1-cyclohexyl-1,2,3,4-tetrazol-5-yl)sulfanyl]-1-phenyl-pyrrolidine-2,5-dione] the figure was more than 66.6 µM; with `Oc1ccccc1-c1nnc(Sc2cc(O)n(-c3ccccc3)c2O)o1` [3-[[(2Z)-2-(6-oxo-1-cyclohexa-2,4-dienylidene)-3H-1,3,4-oxadiazol-5-yl]thio]-1-phenylpyrrolidine-2,5-dione], more than 66.6 µM. With `O=Nc1c(C2C(=O)Nc3cc(Br)ccc32)[nH]c2ccccc12` (stereo not drawn) [6-bromoindirubin-3-oxime] the figure was 40.8 µM; with `O=C1C([N+](=O)[O-])=CC=CC1CN=Nc1ccc2ccccc2n1` (stereo not drawn) [(6E)-2-nitro-6-[(2-quinolin-2-ylhydrazinyl)methylidene]cyclohexa-2,4-dien-1-one], more than 66.6 µM. `COc1cccc(CN=Nc2nc(Nc3ccccc3)nc(-n3nc(C)cc3C)n2)c1O` [(6E)-6-[[2-[4-(3,5-dimethylpyrazol-1-yl)-6-phenylazanyl-1,3,5-triazin-2-yl]hydrazinyl]methylidene]-2-methoxy-cyclohexa-2,4-dien-1-one]: the IC50 was more than 66.6 µM.

Turning to `CN(C)c1nc(N=NCc2ccccc2O)nc(Nc2ccc(F)cc2)n1` [(6E)-6-[[2-[4-(dimethylamino)-6-(4-fluoroanilino)-1,3,5-triazin-2-yl]hydrazinyl]methylidene]cyclohexa-2,4-dien-1-one], the half-inhibitory concentration (IC50) was more than 66.6 µM.

Compound `CC(N=Nc1ccc2ccccc2n1)c1ccccc1O` (stereo not drawn) [(6Z)-6-[1-[N'-(2-quinolyl)hydrazino]ethylidene]cyclohexa-2,4-dien-1-one] yielded an IC50 of more than 66.6 µM. For the compound `O=C1C([N+](=O)[O-])=CC(Cl)=CC1CN=Nc1ccccn1` (stereo not drawn) [MLS000539830], the half-maximal inhibitory concentration (IC50) is more than 66.6 µM. With `O=C1C=CC([N+](=O)[O-])=CC1CN=Nc1ccccn1` (stereo not drawn) [MLS000585015] the figure was more than 66.6 µM; with `O=C(NN=CC1C=C([N+](=O)[O-])C=CC1=O)Nc1ccccc1` (stereo not drawn) [MLS000713965], more than 66.6 µM; with `O=C1C(O)=CC=CC1CN=Nc1ccc([N+](=O)[O-])cc1` (stereo not drawn) [MLS001207776], more than 66.6 µM. Compound `Oc1c(Cl)c(N=CCc2ccccc2)c(O)c2ccccc12` [MLS002608293] showed an IC50 of more than 66.6 µM. The compound `O=C1C=CC=CC1CN=Nc1ccc([N+](=O)[O-])cn1` (stereo not drawn) [MLS002608402] had an IC50 of 46 µM. With `C/C=C(\C)C(=O)OC1[C@H](OC(C)=O)C2(CO)C(CC1(C)C)C1=CCC3C4(C)CCC(O[C@@H]5O[C@H](C(=O)O)[C@@H](O[C@@H]6O[C@H](CO)[C@@H](O)[C@H](O)[C@H]6O)[C@H](O)[C@H]5O[C@H]5O[C@H](CO)[C@@H](O)[C@H](O)[C@H]5O)[C@](C)(CO)C4CCC3(C)[C@]1(C)C[C@H]2O` (stereo partly drawn) [MLS002695979] the figure was more than 66.6 µM; with `C=CCSC(N)=NN=CC1C=C(Br)C=C([N+](=O)[O-])C1=O` (stereo not drawn) [N''-[[(E)-(3-bromo-5-nitro-6-oxo-1-cyclohexa-2,4-dienylidene)methyl]amino]carbamimidothioic acid prop-2-enyl ester], more than 66.6 µM. With `CC1=NN(c2ccccc2)C(=O)/C1=C/NN1C(=O)c2ccc3c4c(ccc(c24)C1=O)CC3` [SMR000171439], the IC50 is more than 66.6 µM.

The compound `CN1C(=O)/C(=C2/C(=O)Nc3ccccc32)NC1=S` [SMR000198608] gave an IC50 of more than 66.6 µM. Turning to `O=C1C(/C=N/c2ccc(N3CCOCC3)cc2)=CC(Cc2ccccc2)C=C1[N+](=O)[O-]` (stereo not drawn) [SMR000231104], the IC50 is more than 66.6 µM.

`CCOc1ccc(-n2c(O)cc(Sc3nnnn3-c3ccccc3)c2O)cc1` [SMR000271658] had an IC50 of more than 66.6 µM.

The compound `Cc1cc2nc(-n3c(O)c[nH]c3=S)sc2cc1C` [SMR000272190] displayed an IC50 of more than 66.6 µM. The compound `CCCC1CCC(=NNC(=S)NCCc2ccccc2)CC1` (stereo not drawn) [SMR000347544] registered an IC50 of more than 66.6 µM. With `CC(C)(C)C1CCC(=NNC(=S)NCc2ccccc2)CC1` (stereo not drawn) [SMR000377499], the IC50 was more than 66.6 µM. The same measure for `COc1ccc(-n2c(O)c(CN=Nc3nc(C)cc(C)n3)c3ccccc3c2=O)cc1OC` [SMR000385482]: more than 66.6 µM. With `Cc1cc(N=NCc2ccc(F)cc2)nc(-n2nc(C)cc2C)n1` [SMR000426945] the figure was more than 66.6 µM; with `CN1C(=O)C(C2CC(c3ccc(Cl)cc3)N=N2)C(=O)N(C)C1=O` (stereo not drawn) [SMR000439471], more than 66.6 µM.

Consider `O=C(O)c1ccc(N=NC=CCc2ccc([N+](=O)[O-])o2)cc1` [SMR000590759], for which the IC50 was determined as 33 µM. Turning to `CCOc1ccc(CN=Nc2ccc(S(=O)(=O)Nc3ccccc3C(=O)O)cc2[N+](=O)[O-])cc1OC` [SMR001308940], the IC50 is more than 66.6 µM. The same measure for `N#CC(=C1C=CC(N=O)C(Cl)=C1)c1ccc(Cl)cc1` (stereo not drawn) [SMR001570423]: more than 66.6 µM.

These data come from BindingDB's records for doi:10.7270/Q2NG4P4X (Burnham Center For Chemical Genomics, 2011).
